Data from patent US20060281807A1, “Quassinoid compositions for the treatment of cancer and other proliferative diseases” (Tapestry Pharmaceuticals, Inc., priority 2005, published 2006).
In brackets after ≈: the same amount, converted by molar mass. Several values for one entry are separate records, joined by “and”; a condition that tells them apart may be missing. Equal entries are not always repeated. Where two headings read alike, the source gives them in different places.

What was measured:
[1] = tested on: HCT116 (human colorectal carcinoma); experiment: Disk diffusion assay, zone of inhibition, HCT116; assay type: cell-based; details: 1 mg/mL
Description: (§1) A disk diffusion assay was performed to define the differential cell killing ability of 15-O-(3′-hydroxy-3′-isopropyl-4′-methylpentanoyl)bruceolide. Seven cell types were assayed: L1210 (ATCC CCL-219) (murine leukemia), CCRF-CEM (ATCC CCL-119) (human leukemia), Colon 38 (murine colon adenocarcinoma), HCT116 (ATCC CCL-247) (human colorectal carcinoma), H125 (human lung carcinoma). The murine and human granulocyte/macrophage progenitor cell line (CFU-GM), served as controls.
(§2) Colon 38 cells (about 1 gram) were cut into small fragments in 15 mL of Hank's Balanced Salt Solution (HBSS) over a 100-mesh sieve and gently forced through by the scissors with HBSS constantly perfusing the sieve. The resulting material was then drawn into and out of a 5 mL syringe without a needle to further disperse the cell clumps. The cell solution was diluted and plated in 0.3% agarose in DMEM plus 10% heat-inactivated Bovine Calf Serum (BCS). For plating of all of the cell types (except controls), the 60 mm plates were first prepared with a hard agar bottom layer (0.6% agar in RPMI-1640 plus 15% BCS).
(§3) HCT116 and H125 cells were maintained in cell culture, and were removed from culture by a trypsin-collagenase-DNAase cocktail. The plating efficiencies of each cell type was sufficiently high that 30,000 cells in 3 mL produced the desired number of colonies (i.e., over 10,000 per plate) in 60 mm plates. This soft agar top layer (0.3% with the serum and media as above) plus the titrated tumor cells were poured into the plates and allowed to solidify.
(§4) A 15 μl sample of each compound was dropped onto a 6.5 mm disk (Baxter filter disks). The disks were allowed to dry overnight and then placed close to the edge of a petri dish. Depending upon the cell type, the dishes were incubated for 7 to 10 days, and examined by an inverted stereo-microscope (10×) for measurement of the zone of inhibition. The zone of inhibition was measured from the edge of the filter disk to the beginning of normal-sized colony formation. The diameter of the filter disk, 6.5 mm, was arbitrarily taken as a zone of 200 units. Compounds that were selective for killing solid tumors, as compared to leukemia or normal cells (“solid tumor selective”) were defined as those compounds which produced a difference in zones between solid tumor cells and either normal or leukemia cells of at least 250 units. The results of this analysis are set forth in Table 4, which illustrates the relative diameters of the zones of inhibition by various drugs on the growth of the respective cell types at various drug dilutions.

[2] = tested on: Colon 38 (murine colon adenocarcinoma); experiment: Disk diffusion assay, zone of inhibition, Colon 38; zone differentials, potency and product; assay type: cell-based; design: key to C38ΔL1210 / C38ΔCFU: difference of zone of inhibition values, in zone units; details: for zone of inhibition, Colon 38: 1 mg/mL; for Sum: C38ΔL1210 plus C38ΔCFU; for C38ΔL1210 / C38ΔCFU: difference between zone of inhibition values; for C38ΔL1210: Colon38 vs L1210 leukemia; for C38ΔCFU: Colon38 vs normal cell CFU-GM; for Product: potency multiplied by zone differentials
Procedure, shortened: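 Dissociated Colon 38 cells were plated in soft agar over a hard agar layer; 15 µl of compound dilution dried on a 6.5 mm disk was placed on the plate, and incubation ran 7–10 days. Inhibition zone was measured from disk edge to normal colonies, with the disk diameter = 200 units. Potency = dilution giving 500 units; the product multiplies it by the differentials against L1210 or CFU-GM.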

[3] = tested on: H125 (human lung carcinoma); experiment: Disk diffusion assay, zone of inhibition, H125; assay type: cell-based; details: 1 mg/mL
Description: as §1, §2, §3, §4

murine CFU-GM = experiment: Disk diffusion assay, zone of inhibition, murine CFU-GM; assay type: cell-based; details: 1 mg/mL
Description: as §1
(§5) For CFU-GM cells, the femoral marrow of BD2F1 mice was flushed with MEM alpha (2 mL per femur). The cells were passed through an 18 gauge needle twice and the monodispersed suspension was counted. A total of 1.5×10^6 cells were plated in 3 mL of 0.3% agar with the addition of 10% L cell conditioned media, which provided colony stimulating factor, in MEM-alpha plus 10% BCS. For human CFU-GM, the cells were obtained from Poietic Technologies, Inc. (Gaithersburg, Md.) and washed twice with PBS before being titered and added to the agar mixture. The same cell number, culture conditions, and conditioning factors used with respect to the murine CFU-GM cells were used with the human cells, except that the cultures were assessed after 10 days of incubation.
as §4

L1210 (murine leukemia) = experiment: Disk diffusion assay, zone of inhibition, L1210; assay type: cell-based; details: 1 mg/mL
Description: as §1, §2, §4

human CFU-GM = assay type: cell-based; details: 1 mg/mL
Description: as §1, §5, §4

[4] = tested on: CCRF-CEM (human leukemia); experiment: Disk diffusion assay, zone of inhibition, CCRF-CEM; assay type: cell-based; details: 1 mg/mL
Description: as §1, §2, §4

HCT-116 cells [5] = experiment: HCT-116 cytotoxicity, viable cell count by trypan blue; assay type: cell-based, human
[6] = Maximum tolerated dose in mice; details: first stage, one mouse per dose
Description: Formulations containing 15-O-(3′-hydroxy-3′-isopropyl-4′-methylpentanoyl)bruceolide, 15-(3-isopropyl-4-methyl-2-pentenoyl)-bruceolide, and, for comparative purposes, bruceantin, or peninsularinone were prepared by solubilizing each compound in up to 100 mg/mL of ethanol. These solutions were diluted 1:1 with a stabilizer (Cremophor/propylene glycol). The solutions were then diluted in saline (1:10 minimum).
The maximum tolerated dose (MTD) was determined by a two-stage experiment. In the first stage, between 1 and 10 mg/mL of the formulation was prepared as described above. Next, 0.25 mL of the formulation was injected intravenously into one 20 gram mouse (0.75 mg/mouse). If the animal died within 30 days of injection, a series of subsequent 2-fold dilutions were administered to individual mice until an MTD was defined. […] The second stage of the study involved increasing the number of mice per dose to four, and retesting four dilutions that bracket the MTD from the individual mouse study. The four dilutions were the MTD, a dosage twice the MTD, a dosage ½ the MTD, and a dosage ¼ the MTD.

HCT-116 cells [7] = experiment: Clonogenic assay, HCT-116; assay type: cell-based, human; details: colonies at 7 days
Description: A clonogenic assay was performed using HCT-116 cells. Specifically, HCT-116 cells were seeded at 200 to 20,000 cells in 60 mm dishes. […] At either 2 hours or 24 hours following drug administration, the drug-containing media was removed, and fresh media without drug was added. In addition, one group of cells was subjected to continuous drug exposure for the entire incubation period. The dishes were incubated for 7 days (at 37° C. and 5% CO2), media was removed, and the colonies were stained with methylene blue. Colonies containing 50 cells or more were counted. The results were normalized to an untreated control. Plating efficiency for the untreated cells was about 90%. Repeat experiments also were carried out to define the cell survival range between 1 (100%) and 10^−3 (0.1%) survival. A survival rate of 10^−1 was chosen as the minimal level that would be required in vivo to achieve therapeutic efficacy against HCT-116 cells in tumor-bearing mice. The clonogenic dose response to 15-O-(3′-hydroxy-3′-isopropyl-4′-methylpentanoyl)bruceolide is illustrated in FIG. 4. The clonogenic dose response to 15-(3-isopropyl-4-methyl-2-pentenoyl)-bruceolide is illustrated in FIG. 5.

[8] = no dilution, 15 μl on disk, 6.5 mm = 200 units

SMILES: CC(=O)O[C@H]1C(=O)[C@@]2(C)[C@H]([C@H](OC(=O)c3ccccc3)[C@]3(O)C[C@H](OC(=O)[C@H](O)[C@@H](NC(=O)c4ccccc4)c4ccccc4)C(C)=C1C3(C)C)[C@]1(OC(C)=O)CO[C@@H]1C[C@@H]2O [Taxol, taxol]
- zone of inhibition, H-116 ([1]; dilution 1/4): 750 units
- zone of inhibition, H-116 ([1]; dilution 1/16): 650 units
- zone of inhibition, H-116 ([1]; dilution 1/64): 550 units
- zone of inhibition, H-116 ([1]; dilution 1/256): 400 units
- zone of inhibition, H-116 [1, 8]: 850 units
- zone of inhibition, Colon 38 ([2]; dilution 1/4): 900 units
- zone of inhibition, Colon 38 ([2]; dilution 1/16): 750 units
- zone of inhibition, Colon 38 ([2]; dilution 1/64): 600 units
- zone of inhibition, Colon 38 ([2]; dilution 1/256): 450 units
- zone of inhibition, Colon 38 [2, 8]: >1000 units
- Sum [2]: 700
- C38ΔL1210 [2]: 400
- C38ΔCFU [2]: 300
- Product [2]: 3500
- zone of inhibition, H-125 M ([3]; dilution 1/4): 850 units
- zone of inhibition, H-125 M ([3]; dilution 1/16): 750 units
- zone of inhibition, H-125 M ([3]; dilution 1/64): 650 units
- zone of inhibition, H-125 M ([3]; dilution 1/256): 500 units
- zone of inhibition, H-125 M [3, 8]: >1000 units
- zone of inhibition, murine CFU-GM (murine CFU-GM; dilution 1/4): 600 units
- zone of inhibition, murine CFU-GM (murine CFU-GM; dilution 1/16): 550 units
- zone of inhibition, murine CFU-GM (murine CFU-GM; dilution 1/64): 400 units
- zone of inhibition, murine CFU-GM (murine CFU-GM; dilution 1/256): 150 units
- zone of inhibition, murine CFU-GM (murine CFU-GM; [8]): 650 units
- zone of inhibition, L1210 (L1210 (murine leukemia); dilution 1/4): 550 units
- zone of inhibition, L1210 (L1210 (murine leukemia); dilution 1/16): 500 units
- zone of inhibition, L1210 (L1210 (murine leukemia); dilution 1/64): 350 units
- zone of inhibition, L1210 (L1210 (murine leukemia); dilution 1/256): 50 units
- zone of inhibition, L1210 (L1210 (murine leukemia); [8]): 650 units
- zone of inhibition, human CFU-GM (human CFU-GM; dilution 1/4): >1000 units
- zone of inhibition, human CFU-GM (human CFU-GM; dilution 1/16): 800 units
- zone of inhibition, human CFU-GM (human CFU-GM; dilution 1/64): 750 units
- zone of inhibition, human CFU-GM (human CFU-GM; dilution 1/256): 550 units
- zone of inhibition, human CFU-GM (human CFU-GM; [8]): >1000 units
- zone of inhibition, CEM ([4]; dilution 1/4): >1000 units
- zone of inhibition, CEM ([4]; dilution 1/16): 900 units
- zone of inhibition, CEM ([4]; dilution 1/64): 750 units
- zone of inhibition, CEM ([4]; dilution 1/256): 550 units
- zone of inhibition, CEM [4, 8]: >1000 units

SMILES: COC(=O)[C@@]12OC[C@]34[C@H]([C@@H](O)[C@@H]1O)[C@@]1(C)CC(=O)C(O)=C(C)[C@@H]1C[C@H]3OC(=O)[C@H](OC(=O)/C=C(\C)C(C)C)[C@@H]24 [Bruceantin, bruceantin]
- zone of inhibition, H-116 ([1]; dilution 1/10): 1000 units
- zone of inhibition, H-116 ([1]; dilution 1/100): 400 units
- zone of inhibition, H-116 ([1]; dilution 1/1000): 0 units
- zone of inhibition, H-116 [1, 8]: >1000 units
- zone of inhibition, Colon 38 ([2]; dilution 1/10): >1000 units
- zone of inhibition, Colon 38 ([2]; dilution 1/100): 600 units and 1000 units
- zone of inhibition, Colon 38 ([2]; dilution 1/1000): 600 units and 450 units
- zone of inhibition, Colon 38 [2, 8]: >1000 units
- Sum [2]: 1050
- C38ΔL1210 [2]: 500
- C38ΔCFU [2]: 550
- Product [2]: 6300
- IC90/IC50 (HCT-116 cells [5]; HCT-116): 6,700
- IC50 (HCT-116 cells [5]; Homo sapiens, 72 h, HCT-116, 3 days with compound, viable cells, by interpolation, read-out: IC50): 0.0015 µg/mL (≈ 0.00273 µM)
- IC90 (HCT-116 cells [5]; Homo sapiens, 72 h, HCT-116, 3 days with compound, viable cells, by interpolation, read-out: IC90): 10 µg/mL (≈ 18.2 µM)
- zone of inhibition, H-125 M ([3]; dilution 1/10): >1000 units
- zone of inhibition, H-125 M ([3]; dilution 1/100): 600 units
- zone of inhibition, H-125 M ([3]; dilution 1/1000): 100 units
- zone of inhibition, H-125 M [3, 8]: >1000 units
- maximum tolerated dose, Dose - 1 Mouse ([6]; intravenous): 0.1 mg/mouse
- MTD ([6]; mouse, in vivo, iv, maximum tolerated dose, Dose - 1 Mouse): 5.4 mg/kg
- zone of inhibition, murine CFU-GM (murine CFU-GM; dilution 1/10): 550 units
- zone of inhibition, murine CFU-GM (murine CFU-GM; dilution 1/100): 150 units and 200 units
- zone of inhibition, murine CFU-GM (murine CFU-GM; dilution 1/1000): 0 units
- zone of inhibition, L1210 (L1210 (murine leukemia); dilution 1/10): 1000 units
- zone of inhibition, L1210 (L1210 (murine leukemia); [8]): >1000 units
- zone of inhibition, human CFU-GM (human CFU-GM; dilution 1/10): >1000 units
- zone of inhibition, human CFU-GM (human CFU-GM; dilution 1/100): 650 units
- zone of inhibition, CEM ([4]; dilution 1/100): 450 units
- Concentration Required for 10^−1 Survival Fraction (HCT-116 cells [7]; HCT-116, 2 Hour Exposure): >10 μg/mL
- Concentration Required for 10^−1 Survival Fraction (HCT-116 cells [7]; HCT-116, 24 Hour Exposure): >10 μg/mL
- Concentration Required for 10^−1 Survival Fraction (HCT-116 cells [7]; HCT-116, Continuous Exposure): 2 × 10^−3 μg/mL
